Measurements from publication PMC6149664, “Synthesis and In Vitro Antimycobacterial Activity of Novel N-Arylpiperazines Containing an Ethane-1,2-diyl Connecting Chain” (Molecules : A Journal of Synthetic Chemistry and Natural …, 2017).

Legend:
[1] = UV/Vis spectra of methanolic solutions (log ε); type: physicochemical; details: methanolic solution c = 3.0 × 10^−5 M; for log ε2(Ch-T): charge-transfer maximum λ2(Ch-T) = 238–240 nm; for log ε1: λ1 = 208–210 nm; for log ε3: λ3 = 274–276 nm
Description: Electronic properties of the inspected compounds 8a–h (Table 3) were characterized by logarithms of molar absorption coefficients (log ε) of their methanolic solutions (c = 3.0 × 10^−5 M) investigated in the UV/Vis region of the spectrum.
The UV/Vis spectra of methanolic solutions of the analyzed compounds 8a–h (c = 3.0 × 10^−5 M) were estimated on the 8452A Diode Array spectrophotometer HP-8452A (Hewlett Packard, Palo Alto, CA, USA). Methanol for UV-spectroscopy (Merck) was used for the preparation of these solutions.
Results of the UV/Vis analyses were collected and stored digitally using the ChemStation controller software (Agilent Technologies, Waldbronn, Germany). The HP-8452A apparatus measured a complete range of a spectrum from 190 nm to 820 nm.
The log ε values characterizing methanolic solutions of the analyzed compounds 8a–h (c = 3.0 × 10^−5 M) were estimated at λ1 = 208–210 nm, λ2(Ch-T) = 238–240 nm and λ3 = 274–276 nm (Table 3), respectively, in a near ultraviolet (quarz) region of the electromagnetic spectrum between 200 and 400 nm. The log ε values for the observed absorption maxima were calculated according to the Lambert-Beer´s law discussed in [47], for example, and expressed by Equation (8):A = ε × c × l(8) where the A parameter represented the absorbance of a solution, the descriptor ε was a molar absorption coefficient (in the L/mol/cm units) and l was the path length (in the cm units).

[2] = test system: M. avium subsp. paratuberculosis CIT03; experiment: microbe, parasite or virus in culture; type: cell-based; details: Mycobacterium avium, 168 h; 7 days incubation, alamarBlue; MIC = IC90; read-out: MIC, MAP CIT03
[3] = test system: M. avium intracellulare ATCC 13950; experiment: In vitro antimycobacterial MIC (IC90), alamarBlue 96-well assay in Middlebrook broth; type: cell-based, Mycobacterium avium intracellulare; details: Mycobacterium avium, ATCC13950, 168 h, 7 days incubation, read-out: MIC, MAI ATCC 13950
[4] = test system: human monocytic leukemia THP-1 cell line; experiment: In vitro cytotoxicity screening, LDH assay; details: 24 h

Row | SMILES | log ε2(Ch-T) [1] | log ε1 [1] | log ε3 [1] | MIC [2] [µM] | MIC [3] [µM] | Relative survival rate of the THP-1 cells ([4]; highest tested concentration of 30 μM) [%] | Effect on proliferation of the THP-1 cells compared to a control [4]
1 | CCCOC(=O)Nc1cccc(C(O)CN2CCN(c3ccccc3F)CC2)c1.Cl (stereo not shown) [8c, 1-(2-Hydroxy-2-{3-[(propoxycarbonyl)amino]phenyl}ethyl)-4-(2-fluorophenyl)piperazin-1-ium chloride] | 4.37 | 4.30 | 3.42 | > 571 | > 571 | – | –
2 | CCCCOC(=O)Nc1cccc(C(O)CN2CCN(c3ccccc3F)CC2)c1.Cl (stereo not shown) [8d, 1-(2-{3-[(Butoxycarbonyl)amino]phenyl}-2-hydroxyethyl)-4-(2-fluorophenyl)piperazin-1-ium chloride] | 4.32 | 4.31 | 3.49 | > 53 | > 553 | 79 | –
3 | CCCCOC(=O)Nc1ccc(C(O)CN2CCN(c3ccccc3F)CC2)cc1.Cl (stereo not shown) [8h, 1-(2-{4-[(Butoxycarbonyl)amino]phenyl}-2-hydroxyethyl)-4-(2-fluorophenyl)piperazin-1-ium chloride] | 4.42 | 4.34 | 3.42 | > 553 | > 553 | – | –
4 | COC(=O)Nc1cccc(C(O)CN2CCN(c3ccccc3F)CC2)c1.Cl (stereo not shown) [8a, 1-(2-Hydroxy-2-{3-[(methoxycarbonyl)amino]phenyl}ethyl)-4-(2-fluorophenyl)piperazin-1-ium chloride] | 4.30 | 4.30 | 3.45 | > 610 | > 610 | – | increased proliferation
5 | CCCOC(=O)Nc1ccc(C(O)CN2CCN(c3ccccc3F)CC2)cc1.Cl (stereo not shown) [8g, 1-(2-Hydroxy-2-{4-[(propoxycarbonyl)amino]phenyl}ethyl)-4-(2-fluorophenyl)piperazin-1-ium chloride] | 4.54 | 4.47 | 3.52 | > 571 | > 71 | – | –
6 | COC(=O)Nc1ccc(C(O)CN2CCN(c3ccccc3F)CC2)cc1.Cl (stereo not shown) [8e, 1-(2-Hydroxy-2-{4-[(methoxycarbonyl)amino]phenyl}ethyl)-4-(2-fluorophenyl)piperazin-1-ium chloride] | 4.67 | 4.61 | 3.67 | > 610 | > 610 | – | increased proliferation
7 | CCOC(=O)Nc1cccc(C(O)CN2CCN(c3ccccc3F)CC2)c1.Cl (stereo not shown) [8b, 1-(2-{3-[(Ethoxycarbonyl)amino]phenyl}-2-hydroxyethyl)-4-(2-fluorophenyl)piperazin-1-ium chloride] | 4.33 | 4.31 | 3.40 | > 590 | > 590 | – | –
8 | CCOC(=O)Nc1ccc(C(O)CN2CCN(c3ccccc3F)CC2)cc1.Cl (stereo not shown) [8f, 1-(2-{4-[(Ethoxycarbonyl)amino]phenyl}-2-hydroxyethyl)-4-(2-fluorophenyl)piperazin-1-ium chloride] | 4.60 | 4.59 | 3.60 | > 590 | > 590 | – | –
